{
  "source": "patent US4548926A",
  "about": "“Hypotensive peptides and their use” (Sankyo Company Limited, priority 1983, dated 1985)",
  "note": "Square brackets hold non-standard residues; d marks the D form. Peptide text beside a SMILES is read from it. * marks the point of attachment. 1Nal = N[C@@H](Cc1cccc2ccccc12)C(=O)O; Npys = O=[N+]([O-])c1cccnc1S*; Leu(ol) = CC(C)C[C@H](N)CO; Cbz = O=C(OCc1ccccc1)*; Mpa = O=C(O)CCS",
  "data": [
    {"target": "T1, human renin (Homo sapiens, UniProt P00797)", "T1 sequence (P00797 67-406)": "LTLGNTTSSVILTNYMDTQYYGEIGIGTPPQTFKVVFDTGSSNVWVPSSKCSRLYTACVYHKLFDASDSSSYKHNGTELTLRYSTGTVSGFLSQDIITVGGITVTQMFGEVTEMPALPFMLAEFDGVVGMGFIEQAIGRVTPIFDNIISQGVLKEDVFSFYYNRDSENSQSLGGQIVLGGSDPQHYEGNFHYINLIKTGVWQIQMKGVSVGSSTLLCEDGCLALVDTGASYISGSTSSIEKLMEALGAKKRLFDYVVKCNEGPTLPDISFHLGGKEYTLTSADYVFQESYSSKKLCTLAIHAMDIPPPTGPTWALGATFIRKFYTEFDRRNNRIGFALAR", "test": "Inhibition of renin activity (human renin with sheep angiotensinogen, assay of angiotensin I)", "assay_type": "biochemical", "conditions": "test compound 5 × 10^-5 mole/liter, phosphate buffer pH 7.3, 10 minutes at 37° C., mean of 3 or 4 experiments", "description": "The ability of various compounds of the invention to inhibit the activity of renin was determined according to the following method.\nSpecifically, each test compound was dissolved in 60% v/v aqueous ethanol. Human renin activity in the presence and absence of each compound was measured using sheep angiotensinogen. The total volume of 1 ml of assay mixture contained 0.1 mole/liter phosphate buffer (pH 7.3), human renin (equivalent to 0.5 ng angiotensin I per ml per minute), sheep angiotensinogen (equivalent to 200 ng angiotensin I), the indicated concentration of the test compound, 6% ethanol and angiotensinase inhibitors (10 mmole/liter sodium ethylenediaminetetraacetate and 3.4 mmole/liter 8-hydroxyquinoline). The mixture was allowed to react for 10 minutes at 37° C., and then the reaction was stopped by placing the reaction tube in a boiling water bath for 5 minutes. The mixture was then centrifuged and the supernatant (0.05-0.1 ml) was used to assay remaining angiotensin I.\nAn identical experiment was carried out, as a control, except that the test compound was omitted. From the values obtained were calculated the % inhibition of renin activity achieved by each test compound. The results are shown in the following Table, in which the compounds of the invention are identified by the numbers assigned to them in the foregoing list. The values given are the mean of 3 or 4 experiments.", "units": {"% Inhibition": "%"}, "values": [
      {"smiles": "CC(C)C[C@@H](C=O)NC(=O)[C@H](Cc1c[nH]cn1)NC(=O)[C@H](Cc1ccccc1)NC(=O)CCCc1ccccc1", "note": "[Compound 1, N-(4-phenylbutyryl)-L-phenylalanyl-L-histidyl-L-leucinal]", "% Inhibition": 53},
      {"smiles": "CC(C)C[C@@H](C=O)NC(=O)[C@H](Cc1c[nH]cn1)NC(=O)[C@H](Cc1ccccc1)NC(=O)CCSSc1ncccc1[N+](=O)[O-]", "note": "[Compound 2, N-[3-(3-nitro-2-pyridyldithio)propionyl]-L-phenylalanyl-L-histidyl-L-leucinal] ([Mpa](Npys)FHL-aldehyde)", "% Inhibition": 70},
      {"smiles": "CC(C)C[C@@H](C=O)NC(=O)[C@H](Cc1c[nH]cn1)NC(=O)[C@H](Cc1cccc2ccccc12)NC(=O)OCc1ccccc1", "note": "[Compound 3, N-benzyloxycarbonyl-3-(1-naphthyl)-L-alanyl-L-histidyl-L-leucinal] (Cbz-[1Nal]-His-Leu-aldehyde)", "% Inhibition": 54},
      {"smiles": "CC(C)C[C@@H](CO)NC(=O)[C@H](Cc1c[nH]cn1)NC(=O)[C@H](Cc1ccccc1)NC(=O)OCc1ccccc1", "note": "[Compound 10, N-benzyloxycarbonyl-L-phenylalanyl-L-histidyl-L-leucinol] (Cbz-Phe-His-[Leu(ol)])", "% Inhibition": 58},
      {"smiles": "CC(C)C[C@@H](CO)NC(=O)[C@H](Cc1c[nH]cn1)NC(=O)[C@H](Cc1ccccc1)NC(=O)CCSSc1ncccc1[N+](=O)[O-]", "note": "[Compound 11, N-[3-(3-nitro-2-pyridyldithio)propionyl]-L-phenylalanyl-L-histidyl-L-leucinol] ([Mpa](Npys)FH[Leu(ol)])", "% Inhibition": 70},
      {"smiles": "CC(C)C[C@@H](CO)NC(=O)[C@H](Cc1c[nH]cn1)NC(=O)[C@H](Cc1cccc2ccccc12)NC(=O)OCc1ccccc1", "note": "[Compound 14, N-benzyloxycarbonyl-3-(1-naphthyl)-L-alanyl-L-histidyl-L-leucinol] (Cbz-[1Nal]-His-[Leu(ol)])", "% Inhibition": 71}
    ]}
  ]
}
